Data taken from US20260242320A1, “USE OF CANNABIDIOL DERIVATIVE IN PREPARATION OF MEDICAMENT” (priority 2023, published 2026).

Columns and labels:
PKM2 protein = PKM2 protein (Homo sapiens, UniProt P14618); assay: Fluorescence titration of purified PKM2; format: binding; conditions: PKM2 0.5 μM
Method: PKM2 protein (0.5 μM) was titrated with increasing concentrations of CIAC001, and the fluorescence intensity (λex 280 nm; λem 337 nm) was recorded by a fluorescence spectrophotometer (Cary Eclipse, Agilent Technologies Inc., USA). Appropriate controls were subtracted from the spectra obtained from the samples. The data were fitted by the nonlinear least squares method using Equation 8, derived from equations 1-7.
Because [LP2]^3 is far less than (LT+PT)×[LP2]^2, Equation 6 can be simplified as Equation 7, allowing derivation of Equation 8: […]
where F is the measured fluorescence; F0 is the initial fluorescence of PKM2 in the absence of CIAC001; FPL is an adjustable parameter for protein-ligand complex molar fluorescence; KD is the dissociation constant; LT is the total concentration of CIAC001; and PT is the total PKM2 concentration. The stoichiometry n was fitted according to the equation […].

CB2 Receptor = target: T1, CB2 Receptor (Homo sapiens, UniProt P34972); assay: cAMP measurement, forskolin-induced cAMP accumulation, CB2; format: cell-based; conditions: cAMP assay
T1 construct: expressed in transfected cells; host or cells: GloSensor 22-F HEK293 cells
Method: GloSensor 22-F HEK293 cells were transfected with plasmids encoding different receptors (CB1 and CB2). After 24 h, HEK293 cells were seeded at a density of 5×10^4 cells per well in 96-well plates and incubated for 8 h; then, the medium was removed, and 200 μL of serum-free DMEM medium containing 2% GloSensor cAMP substrate (Promega) was added. After 2 h incubation, the transfected cells were stimulated with different concentrations of ligands together with […]. The luminescence was recorded using a Multimode Plate Reader (En Vision, PerkinElmer).

[1] = target: T2, endogenous PKM2 in BV-2 cell lysate (Mus musculus, UniProt P52480); assay: Cellular thermal shift assay (CETSA); format: binding
T2 construct: endogenous in cells; host or cells: BV-2 cells
Method: For CETSA experiments, BV-2 cells were seeded at a density of 4×10^5 cells/mL in 10 cm petri dishes. After 24 h, the medium was removed, and cells were washed with cold PBS (3.0 mL) 3 times and harvested by scraping. Cells were then isolated by centrifugation (1000 g, 5 min, 4° C.) and resuspended in cell lysis buffer (P0013, Beyotime Biotechnology) with the 1% protease inhibitor cocktail and then incubated on ice for 10 min. The lysates were centrifuged (12,000 g, 15 min, 4° C.), and the supernatants were collected. CIAC001 (50 μM) or vehicle control was incubated with BV-2 cell lysate supernatant for 2 h at 20° C. The lysate supernatants were divided into 60 μL each in microtubes. The lysates were heated at different temperatures (37-72° C.) for 5 min on a Long Gene A200 thermal cycler and cooled down at 25° C. for another 3 min. The samples were stored on ice until centrifugation (20,000 g, 4° C., 20 min) to remove precipitates. The lysate supernatants were denatured in 2× Laemmli sample buffer at 100° C. for 8 min for western blotting with the PKM2 antibody

[2] = tested on: IL-1β in mPFC, NAc and VTA; assay: IL-1β expression in brain regions after chronic morphine; format: in vivo; conditions: mice
Method: Total RNA was extracted from cells or mouse brains using the RNeasy Mini Kit. Isolated RNA was reverse-transcribed into cDNA using an RT2 Easy First Strand cDNA Synthesis Kit following the manufacturer's protocols. PCR amplification was conducted using synthetic primers, SYBR Green, and a TOptical Real-Time qPCR Thermal Cycler (Analytik Jena, Thuringia, Germany). The data were analyzed by the […] method, and Rpl711 or Rpl27 was used as an internal control.
Conditional place conditioning (CPP) was conducted using the classic 10-consecutive-day procedure. On days 1 and 2, each mouse was separately placed into the CPP apparatus for 15 min to habituate the apparatus. On day 3 (preconditioning), the time spent in each compartment was recorded to determine any preference for the two compartments. Mice were divided into three groups: vehicle group, 7.5 mg/kg morphine, as well as 7.5 mg/kg morphine+0.2 mg/kg CIAC001. During the conditioning phase, mice were separately isolated in the compartment for 30 min on 6 consecutive days. Mice were given morphine on days 4, 6, and 8, and vehicle (5 mL/kg) was administered on days 5, 7, and 9. […] Each mouse was placed in the apparatus and explored freely, and the time spent in each compartment was recorded for 15 min. The CPP score(s) was calculated using the time spent in the drug-paired compartment minus the time spent in the vehicle-paired compartment.

[3] = tested on: hippocampus of transgene mice; assay: Potential of hippocampus (LTP) measurement; format: in vivo
Method: Mouse brains were quickly removed following anesthetization using isoflurane and euthanasia by cervical dislocation and immersed in pre-chilled artificial cerebrospinal fluid (ACSF) for 3 minutes while continuously supplying O2 to the fluid to maintain brain activity. Then, the brain was then quickly fixed with glue onto a platform of a vibratome (with the olfactory bulb facing up and the hindbrain facing down) and placed in well-oxygenated, pre-chilled ACSF. The brain was then sliced at 300 μm per slice with a cutting speed of 0.14 mm/s, starting from the appearance of the hippocampus. The collected brain slices were divided into left and right hemispheres and incubated in an O2-filled water bath at 32° C. for 2 hours. Afterwards, computer software used for recording was adjusted to ensure a stable baseline. The incubated brain slices were placed in the center of an electrode, with the brightest line of the CA1 region in the hippocampus spanning diagonally across the baseline, and fixed with a grid and iron block inside the recording device. Each potential in the electrode was stimulated to find the optimal stimulation point. High-frequency stimulation was then performed at the optimal point. Software was then used to record the changes in electrical potential at each electrode point.

[4] = Pharmacokinetic profiles in brain and plasma after oral administration; format: in vivo, mice
Method: Following administration, mice (BALB/c, male, 20-25 g) were sacrificed at 0.5, 1, 2, 3, and 4 h. The blood and brain tissue were collected and extracted with acetonitrile.

[5] = as above; format: in vivo, mice; conditions: male, BALB/c, mouse, 10 mg/kg p.o., read-out: B/P ratio

Chain of PKM2 protein (P14618 whole entry, species assumed): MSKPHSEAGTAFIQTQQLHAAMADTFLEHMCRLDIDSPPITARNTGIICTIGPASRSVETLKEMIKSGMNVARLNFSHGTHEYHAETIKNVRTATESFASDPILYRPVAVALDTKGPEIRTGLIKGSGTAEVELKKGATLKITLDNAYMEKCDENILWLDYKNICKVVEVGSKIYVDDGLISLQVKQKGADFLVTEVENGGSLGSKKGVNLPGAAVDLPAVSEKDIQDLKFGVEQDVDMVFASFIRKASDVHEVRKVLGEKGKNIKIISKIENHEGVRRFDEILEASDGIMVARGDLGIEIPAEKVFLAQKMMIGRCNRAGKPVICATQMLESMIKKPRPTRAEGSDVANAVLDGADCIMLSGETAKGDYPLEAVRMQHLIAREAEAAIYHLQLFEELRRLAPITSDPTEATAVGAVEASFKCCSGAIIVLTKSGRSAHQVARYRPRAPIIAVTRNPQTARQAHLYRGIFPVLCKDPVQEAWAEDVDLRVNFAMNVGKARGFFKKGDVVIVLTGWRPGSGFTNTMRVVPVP
T2 sequence (P52480 whole entry): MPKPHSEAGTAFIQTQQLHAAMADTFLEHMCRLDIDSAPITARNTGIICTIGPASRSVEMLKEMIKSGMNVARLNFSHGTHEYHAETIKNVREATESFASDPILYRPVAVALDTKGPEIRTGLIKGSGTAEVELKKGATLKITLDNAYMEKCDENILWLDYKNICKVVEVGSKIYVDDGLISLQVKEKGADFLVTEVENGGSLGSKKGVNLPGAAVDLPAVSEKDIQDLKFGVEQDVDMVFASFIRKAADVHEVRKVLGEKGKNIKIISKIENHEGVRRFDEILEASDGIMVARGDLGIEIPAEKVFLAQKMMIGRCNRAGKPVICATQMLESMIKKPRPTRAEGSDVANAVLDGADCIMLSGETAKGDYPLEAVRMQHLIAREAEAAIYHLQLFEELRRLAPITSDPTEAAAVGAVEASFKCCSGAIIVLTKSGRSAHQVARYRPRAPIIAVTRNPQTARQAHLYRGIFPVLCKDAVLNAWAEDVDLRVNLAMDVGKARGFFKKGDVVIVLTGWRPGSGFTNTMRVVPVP
T1 sequence (P34972 whole entry): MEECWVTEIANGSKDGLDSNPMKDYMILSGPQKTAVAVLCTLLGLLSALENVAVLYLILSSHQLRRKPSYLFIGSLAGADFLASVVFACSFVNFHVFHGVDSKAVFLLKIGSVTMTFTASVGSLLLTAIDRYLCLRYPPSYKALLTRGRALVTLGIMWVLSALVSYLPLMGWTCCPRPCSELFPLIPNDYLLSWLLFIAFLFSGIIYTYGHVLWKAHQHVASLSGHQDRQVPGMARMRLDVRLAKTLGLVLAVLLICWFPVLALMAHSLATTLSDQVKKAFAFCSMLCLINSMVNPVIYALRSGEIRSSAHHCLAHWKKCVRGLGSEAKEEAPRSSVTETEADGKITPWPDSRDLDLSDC

C=C(C)[C@@H]1CCC(C)=C[C@H]1c1c(O)cc(C(C)n2nccn2)cc1O (stereo partly drawn) [CIAC001, (1′R,2′R)-4-(1-(2H-1,2,3-Triazol-2-yl)ethyl)-5′-methyl-2′-(prop-1-en-2-yl)-1′,2′,3′,4′-tetrahydro-[1,1′-biphenyl]-2,6-diol]
stoichiometry of CIAC001-PKM2 interaction (PKM2 protein): 0.54±0.07
Kd (PKM2 protein; intrinsic fluorescence quenching, read-out: dissociation constant KD): 2200 ± 200 nM
CB2 receptor activity (CB2 Receptor): no apparent CB1/CB2 activity
ΔTm at 50 µM [1]: 3.9 ± 1.3 °C
morphine-induced IL-1β overexpression in mPFC, NAc and VTA [2]: inhibited
increase of hippocampal potential [3]: ~500%
AUC0→t ([4]; brain, 10 mg/kg p.o., mice): 172.8 ng·h/g
AUC0→∞ ([4]; brain, 10 mg/kg p.o., mice): 191.3 ng·h/g
MRT ([4]; brain, 10 mg/kg p.o., mice): 54 min
brain Cmax ([4]; brain, 10 mg/kg p.o., mice): 175.0 ng/g
t1/2 ([4]; brain, 10 mg/kg p.o., mice): 48 min
Kp ([4]; male, BALB/c, mouse, brain / plasma, oral, 10 mg/kg p.o., read-out: B/P ratios within the first 3 h after administration): > 2
Kp at 0.5 h ([4]; male, BALB/c, mouse, brain / plasma, po, 0.5 h, 10 mg/kg p.o., read-out: B/P ratio): 3.31 ± 0.382
Kp at 1 h ([4]; male, BALB/c, mouse, brain / plasma, po, 1 h, 10 mg/kg p.o., read-out: B/P ratio): 3.63 ± 0.425
Kp at 2 h ([4]; male, BALB/c, mouse, brain / plasma, po, 2 h, 10 mg/kg p.o., read-out: B/P ratio): 4.12 ± 1.44
Kp at 3 h ([4]; male, BALB/c, mouse, brain / plasma, po, 3 h, 10 mg/kg p.o., read-out: B/P ratio): 5.76 ± 1.34
Tmax ([4]; male, BALB/c, mouse, po, brain, 10 mg/kg p.o., mice, read-out: Tmax): 18 min
BBB permeability and CNS pharmacokinetics compared to CBD ([4]; oral administration): better BBB permeability and CNS pharmacokinetics
brain Cmax relative to CBD ([4]; vs CBD, 10 mg/kg p.o.): approximately 2 times
Kp at 0.083 h ([5]; 0.083 h): 2.07 ± 0.907
Kp at 0.25 h ([5]; 0.25 h): 2.78 ± 0.389
